Data reported in article PMC11597167, “Evaluation of Selected Plant Phenolics via Beta-Secretase-1 Inhibition, Molecular Docking, and Gene Expression Related to Alzheimer’s Disease” (Pharmaceuticals, 2024).
Where two headings read alike, the source gives them in different places.

Columns and labels:
[1] = molecular target: human recombinant BACE1 (Homo sapiens, UniProt P56817); assay: biochemical; assay type: biochemical; conditions: n: 3; for BACE1 Inhibition (Inhibition% ± SD): 10 mM stock concentration; for IC50: BACE1
Sequence of human recombinant BACE1 (P56817 46-501): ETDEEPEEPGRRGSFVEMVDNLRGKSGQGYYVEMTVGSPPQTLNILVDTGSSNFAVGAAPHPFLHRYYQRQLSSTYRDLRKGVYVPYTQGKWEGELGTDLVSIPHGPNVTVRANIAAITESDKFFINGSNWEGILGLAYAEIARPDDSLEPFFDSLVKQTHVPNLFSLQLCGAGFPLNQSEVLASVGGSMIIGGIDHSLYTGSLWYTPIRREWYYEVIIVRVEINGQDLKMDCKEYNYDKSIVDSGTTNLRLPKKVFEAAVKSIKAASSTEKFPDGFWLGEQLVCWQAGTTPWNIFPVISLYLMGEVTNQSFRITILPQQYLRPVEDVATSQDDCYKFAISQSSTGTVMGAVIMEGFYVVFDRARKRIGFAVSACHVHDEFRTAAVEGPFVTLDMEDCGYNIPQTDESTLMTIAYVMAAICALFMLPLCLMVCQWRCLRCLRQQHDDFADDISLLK
Method: Fluorescence resonance energy transfer (FRET) technology was used to measure the enzymatic activity of BACE1, and measurements were performed by modifying previously used methods and the protocol included in the manufacturer’s (PanVera® Corporation, Madison, […], USA) assay kit. […] The inhibition rate was obtained using the following equation:Inhibition% = [1 − (B − B0)/(K − K0)] × 100
• K0 = fluorescence value of the control group at minute 0 • K = fluorescence value of the control group at 60 min • B0 = fluorescence value of the test compound at minute 0 • B = fluorescence value of the test compound at 60 min

[2] = test system: SH-SY5Y human neuroblastoma cells; assay type: cell-based; conditions: 24 h
Method: SH-SY5Y, a human neuroblastoma cell line (purchased from ATCC®, Cat. No. CRL-2266™), was maintained in Dulbecco’s Modified Eagle Medium/Nutrient Mixture F-12 (DMEM/F-12) complemented with 10% heat-inactivated fetal bovine serum (FBS) and 1% penicillin–streptomycin after being processed for 30 min at 56 °C. Cells were cultivated in a sterile incubator at 37 °C with 5% CO2 and 95% relative humidity.
Cells were maintained in Dulbecco’s Modified Eagle’s Medium (DMEM)/nutrient mixture F-12 (DMEM/F-12) containing 1% penicillin–streptomycin supplemented with 10% fetal bovine serum (FBS) heat-inactivated at 56 °C for 30 min. Cells were cultured in a sterile incubator at 37 °C with 5% CO2 and 95% humidity. Then, 10,000 SH-SY5Y cells in 100 µL of complete medium were seeded in each well of a 96-well plate and incubated for 16–24 h for surface attachment. […] Then, 10 µL of filter-sterilized 0.015% resazurin solution (Sigma-Aldrich, R7017) was added to each well and incubated for 2 h at 37 °C with 5% CO2. Excitation at 560 nm wavelength and emission fluorescence at 590 nm wavelength were measured, and cell viability% was calculated compared to the control group.

[3] = test system: ABCA7; assay: RT-PCR gene expression in SH-SY5Y cells; assay type: cell-based, human; conditions: 24 h at IC08, vs DMSO control, normalized to β-actin
Method: (§1) In the RNA isolation protocol, cell pellets were homogenized using 1 mL of TRIzol reagent and incubated for 5 min at room temperature. Chloroform (200 μL) was added, and the mixture was shaken vigorously and incubated for 3 min at room temperature. The mixture was then centrifuged at 10,000 rpm for 15 min at +4 °C, and the upper colorless phase was transferred to an RNase-free microcentrifuge tube. Isopropanol (500 μL) was added to the tube, and the mixture was incubated at room temperature for 10 min and centrifuged at 10,000 rpm for 10 min. The supernatant was removed, and the pellet was washed with at least 75% ethanol (1 mL) and centrifuged at 7500 rpm for 5 min at +4 °C. After removing all of the supernatant from the tube and air-drying the pellet, the RNA-containing pellet was dissolved in approximately 100 μL of nuclease-free water and incubated at 55 °C for 5 min. RNA was stored at -80 °C for long-term storage. cDNA synthesis was performed using the ABM, OneScript® Plus cDNA synthesis kit (Applied Biological Materials Inc. (abm), Richmond, BC, Canada). A mixture of RNA (2000 ng/μL), dNTPs (1 μL), oligo (dT) primer (1 μL), […], and up to 13 μL of nuclease-free water was prepared and incubated at 65 °C for 5 min as described in the protocol supplied with the kit. After incubating the mixture on ice for 1 min, 4 μL of 5X RT buffer and 1 μL of OneScript® Plus RTase were added to the tube. The mixture was incubated at 50 °C for 50 min and 85 °C for 5 min. cDNA was stored at -20 °C for long-term storage. Real-time PCR was performed using ABM, BlasTaqTM 2X qPCR MasterMix, and the CFX Connect real-time system. […] DMSO, the solvent for dissolving the phenolic compounds, was used as the control group. The Qiagen GeneGlobe Complimentary qPCR Data Analysis Portal (Redwood City, CA, USA), utilizing default parameters, was employed to calculate changes in gene expression. CT values were exported from the BioRad CFX Connect real-time qPCR system and normalized against a reference gene. The p-value was derived from a Student's t-test applied to the replicate 2^-ΔΔCT values for each gene in the comparisons between the control and test groups. The p-value calculation employed was derived from a parametric, unpaired, two-sample equal variance, two-tailed distribution, a method that is widely recognized in the scientific literature. Fold change calculations, representing gene expression ratios, were determined using the established ΔΔCT method as initially described by Livak and Schmittgen. […] Multiple groups were compared by ANOVA and Dunnet post hoc test.

[4] = test system: APOE; assay: RT-PCR gene expression in SH-SY5Y cells; assay type: cell-based, human; conditions: 24 h at IC08, vs DMSO control, normalized to β-actin
Method: as §1

[5] = test system: APP; assay: RT-PCR gene expression in SH-SY5Y cells; assay type: cell-based, human; conditions: 24 h at IC08, vs DMSO control, normalized to β-actin
Method: as §1

[6] = test system: BIN1; assay: RT-PCR gene expression in SH-SY5Y cells; assay type: cell-based, human; conditions: 24 h at IC08, vs DMSO control, normalized to β-actin
Method: as §1

[7] = test system: CCL5; assay: RT-PCR gene expression in SH-SY5Y cells; assay type: cell-based, human; conditions: 24 h at IC08, vs DMSO control, normalized to β-actin
Method: as §1

[8] = test system: CD2AP; assay: RT-PCR gene expression in SH-SY5Y cells; assay type: cell-based, human; conditions: 24 h at IC08, vs DMSO control, normalized to β-actin
Method: as §1

[9] = test system: CD33; assay: RT-PCR gene expression in SH-SY5Y cells; assay type: cell-based, human; conditions: 24 h at IC08, vs DMSO control, normalized to β-actin
Method: as §1

[10] = test system: CLU; assay: RT-PCR gene expression in SH-SY5Y cells; assay type: cell-based, human; conditions: 24 h at IC08, vs DMSO control, normalized to β-actin
Method: as §1

[11] = test system: CR1; assay: RT-PCR gene expression in SH-SY5Y cells; assay type: cell-based, human; conditions: 24 h at IC08, vs DMSO control, normalized to β-actin
Method: as §1

[12] = test system: MMP9; assay: RT-PCR gene expression in SH-SY5Y cells; assay type: cell-based, human; conditions: 24 h at IC08, vs DMSO control, normalized to β-actin
Method: as §1

[13] = test system: PICALM; assay: RT-PCR gene expression in SH-SY5Y cells; assay type: cell-based, human; conditions: 24 h at IC08, vs DMSO control, normalized to β-actin
Method: as §1

[14] = test system: PSEN1; assay: RT-PCR gene expression in SH-SY5Y cells; assay type: cell-based, human; conditions: 24 h at IC08, vs DMSO control, normalized to β-actin
Method: as §1

[15] = test system: SORL1; assay: RT-PCR gene expression in SH-SY5Y cells; assay type: cell-based, human; conditions: 24 h at IC08, vs DMSO control, normalized to β-actin
Method: as §1

[16] = test system: TNF; assay: RT-PCR gene expression in SH-SY5Y cells; assay type: cell-based, human; conditions: 24 h at IC08, vs DMSO control, normalized to β-actin
Method: as §1

[17] = test system: BACT; assay: RT-PCR gene expression in SH-SY5Y cells (reference gene); assay type: cell-based, human; conditions: 24 h at IC08, β-actin, the normalizing reference gene
Method: as §1

[18] = test system: BACE1; conditions: earlier study, cited from earlier work
[19] = test system: APP/PS1 transgenic mice; design: method as in PMID 32913125; conditions: 6 months at 20 mg/kg b.w.; cited from earlier work
[20] = concentration with 8% inhibition (92% viability), SH-SY5Y, Mean ± SD
[21] = read-out: IC50 (inhibitory effect against BACE1)

OCCc1ccc(O)c(O)c1 [3-Hydroxytyrosol, 3-hydroxytyrosol]
BACE1 Inhibition (Inhibition% ± SD) [1]: 45.33 ± 0.22% | BACE1 Inhibition (Inhibition% ± SD) ([1]; listed as 3-hydroxytyrosol): below 50% | IC50 [1]: > 10000 µM | IC08 Values [2, 20]: 278 ± 12.21 µM | Fold Regulation ABCA7 [3]: 1.82 | Fold Regulation APOE [4]: −1.17 | Fold Regulation APP [5]: −1.07 | Fold Regulation BIN1 [6]: 1.87 | Fold Regulation CCL5 [7]: 3.61 | Fold Regulation CD2AP [8]: 1.36 | Fold Regulation CD33 [9]: 2.88 | Fold Regulation CLU [10]: 1.15 | Fold Regulation CR1 [11]: 2.86 | Fold Regulation MMP9 [12]: 4.38 | Fold Regulation PICALM [13]: 1.21 | Fold Regulation PSEN1 [14]: −1.08 | Fold Regulation SORL1 [15]: 1.81 | Fold Regulation TNF [16]: 2.04 | Fold Regulation BACT [17]: 1.00 | IC50 [18, 21]: 0.035 ± 0.04 µM

O=C(O)c1cc(O)c(O)c(O)c1 [Gallic acid, 3,4,5-trihydroxybenzoic acid]
BACE1 Inhibition (Inhibition% ± SD) [1]: 27.51 ± 2.97% | BACE1 Inhibition (Inhibition% ± SD) ([1]; listed as gallic acid): below 50% | IC08 Values [2, 20]: 187 ± 7.11 µM | Fold Regulation ABCA7 [3]: 1.55 | Fold Regulation APOE [4]: −1.07 | Fold Regulation APP [5]: 1.15 | Fold Regulation BIN1 [6]: 1.16 | Fold Regulation CCL5 [7]: 1.92 | Fold Regulation CD2AP [8]: 1.15 | Fold Regulation CD33 [9]: 2.40 | Fold Regulation CLU [10]: −1.11 | Fold Regulation CR1 [11]: 2.20 | Fold Regulation MMP9 [12]: 3.14 | Fold Regulation PICALM [13]: 1.22 | Fold Regulation PSEN1 [14]: −1.11 | Fold Regulation SORL1 [15]: 1.65 | Fold Regulation TNF [16]: 2.06 | Fold Regulation BACT [17]: 1.00 | spatial reference learning and memory impairment [19]: totally reversed

O=C(/C=C/c1ccc(O)c(O)c1)O[C@H](Cc1ccc(O)c(O)c1)C(=O)O [Rosmarinic acid, rosmarinic acid]
BACE1 Inhibition (Inhibition% ± SD) [1]: 67.04 ± 0.64% | IC50 [1]: 4060 ± 680 µM | IC08 Values ([2]; human): 546 ± 31.55 µM | Fold Regulation ABCA7 [3]: −1.07 | Fold Regulation APOE [4]: 1.45 | Fold Regulation APP [5]: 1.01 | Fold Regulation BIN1 [6]: 1.33 | Fold Regulation CCL5 [7]: 1.82 | Fold Regulation CD2AP [8]: 1.08 | Fold Regulation CD33 [9]: 1.88 | Fold Regulation CLU [10]: 1.11 | Fold Regulation CR1 [11]: 1.34 | Fold Regulation MMP9 [12]: 3.02 | Fold Regulation PICALM [13]: 1.32 | Fold Regulation PSEN1 [14]: 1.55 | Fold Regulation SORL1 [15]: 1.23 | Fold Regulation TNF [16]: 1.75 | Fold Regulation BACT [17]: 1.00 | IC50 ([18]; read-out: IC50 (BACE1 inhibitory potential)): 21 µM

C/C=C1/[C@H](O[C@@H]2O[C@H](CO)[C@@H](O)[C@H](O)[C@H]2O)OC=C(C(=O)OC)[C@H]1CC(=O)OCCc1ccc(O)c(O)c1 [Oleuropein, oleuropein]
BACE1 Inhibition (Inhibition% ± SD) [1]: 52.38 ± 2.08% | IC50 [1]: 9870 ± 1010 µM | IC08 Values ([2]; human): 171 ± 22.01 µM | Fold Regulation ABCA7 [3]: 2.42 | Fold Regulation APOE [4]: −1.33 | Fold Regulation APP [5]: 1.05 | Fold Regulation BIN1 [6]: −1.14 | Fold Regulation CCL5 [7]: 2.67 | Fold Regulation CD2AP [8]: 1.31 | Fold Regulation CD33 [9]: 3.88 | Fold Regulation CLU [10]: −1.78 | Fold Regulation CR1 [11]: 3.45 | Fold Regulation MMP9 [12]: 5.31 | Fold Regulation PICALM [13]: 1.43 | Fold Regulation PSEN1 [14]: −1.07 | Fold Regulation SORL1 [15]: 1.90 | Fold Regulation TNF [16]: 2.09 | Fold Regulation BACT [17]: 1.00 | IC50 [18, 21]: 2.76 ± 0.23 µM

O=c1c(O)c(-c2ccc(O)c(O)c2)oc2cc(O)cc(O)c12 [Quercetin, 3,3′,4′,5,7-pentahydroxyflavone, reference compound]
BACE1 Inhibition (Inhibition% ± SD) [1]: 86.87 ± 4.48% | IC08 Values [2, 20]: 27 ± 5.30 µM

O=C(O[C@@H]1Cc2c(O)cc(O)cc2O[C@@H]1c1cc(O)c(O)c(O)c1)c1cc(O)c(O)c(O)c1 [EGCG, epigallocatechin gallate]
IC08 Values [2, 20]: 103 ± 12.47 µM
